Laboratory results as given in PubChem BioAssay AID179 (DTP/NCI, 2004).
Calls of active or inactive are those of the source.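 The calls were made as follows: active = compounds giving half or more protection of infected cells from virus-caused growth loss, again on retest; inactive = the rest.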

Tested on: CEM cells HIV-1 protection, formazan growth assay
Assay: NCI AIDS Antiviral Assay
Conditions: for IC50: measured here: growth of uninfected CEM cells
Summary of the method: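 Category rules: moderately active means at least 50% protection on retest, and confirmed active means 100% protection reproducibly. The underlying data came from a formazan growth assay in HIV-1-infected CEM cells.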

For `NCCCC[C@H](NC(=O)[C@H](CS)NC(=O)[C@@H](N)Cc1cnc[nH]1)C(=O)N[C@H](Cc1ccc(O)cc1)C(=O)N[C@@H](Cc1c[nH]c2ccccc12)C(=O)N[C@@H](Cc1c[nH]c2ccccc12)C(N)=O`, the EC50 was greater than 200 µM and the IC50 was greater than 200 µM.

Work on `COC(=O)c1cc(C)ccc1/C=C1\Cc2cc(C)c(C)cc2C1=O` yielded an EC50 greater than 100 µM and an IC50 greater than 100 µM.

Work on `CN1C(=O)C(=O)N2c3ccc(Cl)cc3C3(c4ccccc4)N=CC12O3` (stereo unspecified) yielded an EC50 greater than 36.3 µM and an IC50 of 5.5 µM.

In the case of `O=C(OC1CCC(=C2SCCCS2)[C@H]1C1SCCCS1)c1ccccc1` (stereo partly specified), the outcome is reported as “inactive”.

For `Cc1cc(Br)ccc1N=Nc1c(C)noc1-c1ccccc1`, the outcome was “inactive”.

Molecule `Clc1nc(Cl)nc(-c2ccccc2)n1` has an EC50 greater than 200 µM and an IC50 greater than 200 µM.

In the case of `OCC(O)C(O)c1nn(-c2ccccc2)c2nc3cc(Cl)c(Cl)cc3nc12` (stereo unspecified), the outcome is reported as “inactive”.

Work on `CCC1(CC)O[C@H]([C@@H](O)CCc2ccccc2O)[C@@H]([C@@H](O)CCc2ccccc2O)O1` yielded an EC50 greater than 200 µM and an IC50 of 33.1 µM.

Work on `NC(=S)/N=C(/c1nc2ccc(Cl)cc2[nH]c1=O)C(O)c1ccccc1Cl` (stereo unspecified) yielded an EC50 greater than 617 µM and an IC50 of 589 µM.

`COc1ccc(/C=c2/sc3n(c2=O)NC2(CCCCC2)NN=3)cc1` was tested, and the outcome was “inactive”.

`COc1ccc(/C(=N\NC(=S)NN)C(c2ccc(OC)cc2)C2C(=O)Oc3ccccc32)cc1` (stereo unspecified) gave an EC50 greater than 75.9 µM and an IC50 greater than 75.9 µM.

For `COc1cc(-c2cc(OC)c(OC)c3ccc(Br)cc23)c2cc(Br)ccc2c1OC`, the EC50 was greater than 200 µM and the IC50 was 102 µM.

For `CN(C)C=Nc1ccc2c3c(cccc13)-c1ccccc1-2`, the EC50 was greater than 200 µM and the IC50 was 14.1 µM.

Work on `N#C/C(=C/N1C(=O)/C(=C/c2ccc([N+](=O)[O-])cc2)SC1=S)C(N)=O` yielded an EC50 greater than 200 µM and an IC50 of 16.2 µM.

In the case of `CCN(CC)CCC(=O)c1ccc(Sc2ccc(F)cc2)cc1`, the outcome is reported as “inactive”.

`O=C1/C(=C/c2ccccc2)CN(C(=O)Oc2ccc(Cl)cc2)C/C1=C\c1ccccc1` was tested, and the outcome was “inactive”.

In the case of `CCCN(CCC)C(=S)Sc1nc(C)nc(N2CCN(c3nc(C)nc(SC(=S)N(CCC)CCC)c3[N+](=O)[O-])CC2)c1[N+](=O)[O-]`, the EC50 is reported as greater than 200 µM and the IC50 is reported as 2.04 µM.

`C=C1c2ccccc2CCN1CC(=O)CC1C=CCS1(=O)=O` (stereo unspecified) showed an EC50 greater than 407 µM and an IC50 greater than 407 µM.

For `Cn1c(=O)c2c(nc(NCC[N+](C)(C)C)n2C)n(C)c1=O`, the outcome was “inactive”.

`O=C(CCN1CCCC1)CC(c1ccccc1)c1c(O)c2ccccc2oc1=O` (stereo unspecified) was tested, and the EC50 was greater than 91.2 µM and the IC50 was greater than 91.2 µM.

For `Cc1c(Cl)nc(Nc2nc3ccccc3[nH]2)nc1Cl`, the outcome was “inactive”.

Molecule `CCOC(=O)c1cc(-n2nnc3ccccc32)cn1C` has an EC50 greater than 200 µM and an IC50 of 46.8 µM.

Work on `CNc1ccc(Cl)cc1S(=O)(=O)c1ccccc1[N+](=O)[O-]` yielded an EC50 of 0.562 µM and an IC50 of 741 µM.

In the case of `CCCCCCC(=O)C/C(CCC(=O)N(Cc1ccccc1)Cc1ccccc1)=N\NC(N)=O`, the EC50 is reported as greater than 38 µM and the IC50 is reported as greater than 38 µM.

`COc1ccc(-c2nc(N3CCCC3)no2)cc1` was tested, and the EC50 was greater than 200 µM and the IC50 was 195 µM.

`COC1C(OC(=O)/C=C/C=C/C=C/C=C/C(=O)O)CCC2(CO2)C1C1(C)OC1CC=C(C)C` (stereo unspecified) was tested, and the EC50 was greater than 0.2 µM and the IC50 was 0.178 µM.

In the case of `CCOC(=O)C1C(c2ccc(OC)cc2)c2c([nH][nH]c2=O)CC1(C)O` (stereo unspecified), the EC50 is reported as greater than 200 µM and the IC50 is reported as greater than 200 µM.

`COc1ccc(/C=C/c2nc(=S)[nH][nH]2)cc1OC` was tested, and the EC50 was greater than 135 µM and the IC50 was 110 µM.

`Cc1ccc(C(=O)/C(C#N)=C/Nc2c(C)n(C)n(-c3ccccc3)c2=O)cc1` showed an EC50 greater than 200 µM and an IC50 greater than 200 µM.

In the case of `CC1=NNC(=O)C1C(CC(=O)c1c[nH]c2ccccc12)C(=O)O` (stereo unspecified), the EC50 is reported as greater than 200 µM and the IC50 is reported as 126 µM.

`NC1=NS(=O)(=O)Nc2nc(-c3cccs3)[nH]c21` was tested, and the EC50 was greater than 200 µM and the IC50 was greater than 200 µM.

In the case of `CC(=O)OCC1OC(n2c(C)c(N=Nc3ccc(Cl)cc3)c(C)c(C#N)c2=S)C(OC(C)=O)C(OC(C)=O)C1OC(C)=O` (stereo unspecified), the EC50 is reported as greater than 200 µM and the IC50 is reported as greater than 200 µM.

Molecule `COc1ccc(C2=C(Cl)c3cc(OC)c(OC)cc3C2=O)cc1OC` has an EC50 greater than 200 µM and an IC50 of 1.45 µM.

Molecule `COc1ccc(S(=O)(=O)OC)cc1C(=O)c1cc(S(=O)(=O)OC)ccc1OC` has an EC50 greater than 23.4 µM and an IC50 greater than 23.4 µM.

With `COc1ccccc1C1(c2c(OC)c(=O)c2=O)SCCCS1` the EC50 was greater than 200 µM and the IC50 was greater than 200 µM.

For `Nc1nc(N)c(CCCCc2ccccc2)c(N)n1`, the outcome was “inactive”.

For `C=C1CC2(OC1=O)c1ccccc1C=Cc1ccccc12`, the EC50 was greater than 26.3 µM and the IC50 was 4.57 µM.

`Cc1nc(-n2nc(-c3ccccc3)cc2-c2ccccc2)sc1C(=O)CC(=O)C(=O)Nc1ccc(Cl)c(Cl)c1` showed an EC50 greater than 45.7 µM and an IC50 greater than 45.7 µM.

With `N#CN=C1C=CC(=C(C#N)C#N)C=C1` the outcome was “inactive”.

With `CCC1CC[N-]CC1.CCC1CC[N-]CC1.CCC1CC[N-]CC1.CCC1CC[N-]CC1.N#C[S-].N#C[S-].[Mn]` the EC50 was greater than 200 µM and the IC50 was 27.5 µM.

Work on `CC(C)(C)NC1C2CCC(C)(C1O)C2(C)C` (stereo unspecified) yielded an EC50 greater than 200 µM and an IC50 greater than 200 µM.

In the case of `CC(C)=CCc1cc2c(cc1O)OC[C@H]1c3cc4c(cc3O[C@@H]21)OCO4`, the EC50 is reported as greater than 53.7 µM and the IC50 is reported as 2.09 µM.

`C#CC(C)(C)C(/C=N\NC(=O)O[C@H]1CC(C)CCC1C(C)C)CCC(=O)OC` (stereo partly specified) showed an EC50 greater than 200 µM and an IC50 of 25.1 µM.
